Patent US11802107B2, “Compounds and methods of use” (Signum Biosciences, Inc., priority 2017, dated 2023)
Values after ≈ are worked out from the molar mass of the structure shown.

Legend:
P. acnes (ATCC 6919) = assay: Minimal inhibitory concentration (MIC) against P. acnes; assay type: cell-based, Propionibacterium acnes; settings: Cutibacterium acnes, ATCC6919, 72 h, P. acnes ATCC 6919, 10^6 CFU/mL, read-out: MIC
Procedure: To determine minimal inhibitory concentration (MIC), reagents were dissolved in vehicle (5% v/v) and then added to bacteria suspension. P. acnes (ATCC® 6919TM) at 10^6 CFU/mL was incubated with test materials at the concentrations of two-fold serial dilution (0.25-500 μg/mL) and incubated for 72 hours (P. acnes).

IL-13 = assay: Concanavalin-A-induced IL-13 on PBMCs; assay type: cell-based; settings: Homo sapiens, PBMC, ConA, 24 hours, ELISA
IL-31 = assay: Anti-CD3/CD28+IL-4-induced IL-31 on PBMCs; assay type: cell-based; settings: Homo sapiens, PBMC, anti-CD3/CD28 beads + 50 ng/mL IL-4, 48 hours, ELISA, read-out: TCR/IL-4-PBMCs IL-31 IC50
Procedure: (§1) Cryopreserved human Peripheral Blood Mononuclear cells (PBMCs) from healthy adult donors were obtained from Zen Bio, Inc (Cat No. SER-PBMC-F). Cells were cultured in 96-well plates with lymphocyte media (Cat No. LYMPH-1) and were pre-treated with test materials (≤100 μM) for 2 hours and later co-treated with test materials and anti-CD3/CD28 beads (Thermo-Fisher; Cat No. 11131D) and 50 ng/mL recombinant human IL-4 (R&D Systems® #204-IL) for 48 hours at 37° C. and 5% CO2. After incubation, cell media supernatants were harvested and used to measure cytokine levels (IL-22, IL-31) using ELISA kits (R&D Systems® #DY782, #DY2824). Results were represented as percent of inhibition relative to untreated and anti-CD3/CD28+IL-4 only treated cells. IC50 values were determined by non-linear regression analysis using the four-parameter logistic equation.

[1] = system: subjects with mild to moderate acne; assay: 8-week clinical study in subjects with mild to moderate acne; assay type: in vivo; design: scale not given here; settings: E 1% w/w, BPO 3% w/w, human
From the text: Subjects used the assigned product at home for 8 weeks. Subjects returned post baseline at week 2, 4 and 8. At each visit subjects underwent expert clinical grading and test site photography. […] The severity of acne signs and symptoms on the faces of >18 yo subjects were clinically assessed by IGA scale during an 8-week Study period. In addition, UV light mode was utilized to observe porphyrins fluorescence (orange-red dots).

PHA-induced cytokines = PHA-induced cytokines on PBMCs (Example F); assay type: cell-based, human; settings: PHA-L instead of anti-CD3/CD28 beads
Procedure: as §1, with “at 1:0.4 PBMC:bead ratio” for “and 50 ng/mL recombinant human IL-4 (R&D Systems® #204-IL)”, “24” for “48”, “(IL-4, IL-5, IL-10)” for “(IL-22, IL-31)”, “(BD Biosciences® #555194, #555157; R&D” for “(R&D”, “#DY317).” for “#DY782, #DY2824).”, “anti-CD3/CD28 beads-only” for “anti-CD3/CD28+IL-4 only”
By a similar method, but instead of anti-CD3/CD28 beads (Thermo-Fisher; Cat No. 11131D), compounds A, C, T and E were treated with LPS (Sigma Aldrich, Cat. No. LF4321) to measure inhibition of LPS-induced cytokines, and compounds C and T were treated with PHA-L (Sigma Aldrich, Cat No. 11249738001) to measure inhibition of PHA-induced cytokines.

TSLP = assay: Calcipotriol-induced TSLP in vivo; settings: CD1 mice, calcipotriol 4 nmol/ear, 24 hours
From the text: CD1 mice were topically exposed to 4 nmol/ear Calcipotriol. Five minutes after challenge compounds were applied. Twenty-four hours later, protein samples were extracted from ear skin biopsies and analyzed for TSLP levels by ELISA method. Vehicle for compounds were 60:40 EtOH:H2O (Compound C) or 1:1 EtOH:Acetone (AN2728). Data represents average±S.E. of a representative set from 2 independent experiments (n=6 mice per group). *p value<0.05; **p value≤0.01 by Student t test compared to Calcipotriol+vehicle-only treated animals. ns equals not significant.

| Compound | MIC (P. acnes (ATCC 6919)) | IC50 (IL-13) | IC50 (IL-31) | Investigator Global Assesment (IGA) Scale ([1]; 2 week) | Investigator Global Assesment (IGA) Scale ([1]; 4 week) | Investigator Global Assesment (IGA) Scale ([1]; 8 week) | Investigator Global Assesment (IGA) Scale ([1]; Baseline) | inhibition of PHA-induced cytokines (PHA-induced cytokines) | AVG - TSLP (TSLP; topical dose 4.0 μg/ear) | TSLP % inhb (TSLP; topical dose 4.0 μg/ear) | AVG - TSLP (TSLP; topical dose 40.0 μg/ear) | TSLP % inhb (TSLP; topical dose 40.0 μg/ear) | AVG - TSLP (TSLP; topical dose 400.0 μg/ear) | TSLP % inhb (TSLP; topical dose 400.0 μg/ear) |
| --- | --- | --- | --- | --- | --- | --- | --- | --- | --- | --- | --- | --- | --- | --- |
| C/C(=C\CSC[C@H](NC(=O)N1CCC[C@H]1C(=O)O)C(=O)O)CCCC(C)CCCC(C)CCCC(C)C (stereo partly shown) [Compound E] | 5 µg/mL (≈ 9.25 µM) | 1500 nM | 1 nM | 2 | 1 | 0 | 3 |  |  |  |  |  |  |  |
| C/C(=C\CSCC(NC(=O)NCC(=O)O)C(=O)O)CCCC(C)CCCC(C)CCCC(C)C (stereo not shown) [A] | 10 µg/mL (≈ 20 µM) |  |  |  |  |  |  |  |  |  |  |  |  |  |
| C/C(=C\CSC[C@H](NC(=O)COCC(=O)O)C(=O)O)CCCC(C)CCCC(C)CCCC(C)C (stereo partly shown) [Compound T] | 22 µg/mL (≈ 42.7 µM) | 100 nM | 1 nM |  |  |  |  | did not show significant inhibition |  |  |  |  |  |  |
| N#Cc1ccc(Oc2ccc3c(c2)COB3O)cc1 [AN2728, reference compound] |  | 3800 nM | 0.008 nM |  |  |  |  |  | 2495.1 pg/6 mm biopsy | 51% | 2235.3 pg/6 mm biopsy | 57% | 352.1 pg/6 mm biopsy | 102% |
| C/C(=C\CSC[C@H](NC(=O)N(C)CC(=O)O)C(=O)O)CCCC(C)CCCC(C)CCCC(C)C (stereo partly drawn) [Compound C, (2R)-2-{[(carboxymethyl)(methyl)carbamoyl]amino}-3-{[(2E)-3,7,11,15-tetramethylhexadec-2-en-1-yl]sulfanyl}propanoic acid] | 6 µg/mL (≈ 11.7 µM) | 8200 nM |  |  |  |  |  | did not show significant inhibition | 2753.6 pg/6 mm biopsy | 15% | 1156.1 pg/6 mm biopsy | 74% | 759.9 pg/6 mm biopsy | 88% |
| C/C(=C\CSCC(NC(=O)N(CC(=O)O)CC(=O)O)C(=O)O)CCCC(C)CCCC(C)CCCC(C)C (stereo not shown) [Compound G] | 4 µg/mL (≈ 7.16 µM) | 20 nM |  |  |  |  |  |  |  |  |  |  |  |  |
